Measurements taken from patent EP0351784A2, “Therapeutic use of the isopropyl ester derivative of monosialoganglioside in nervous pathologies with an inflammatory component” (FIDIA S.p.A., priority 1988, dated 1990).

What was measured:
male Sprague Dawley rats = assay: carrageenan-induced edema test in the paw (antiedematous activity); format: in vivo, rat; conditions: for % inhibition: paw volume increase at 3rd hour
Method: The study was conducted on male Sprague Dawley rats, weighing about 160 ± 10 gr. An evaluation was made of the activity of the isopropyl ester of GM₁ ganglioside (AGF₄₄) and GM₁ in inhibiting the formation of edema following injection of a sterile aqueous solution of 1% carrageenan into the plantar aponeurosis of the right hand paw (0.1 ml/rat). To study administration by oral, subcutaneous and intraparitoneal routes, AGF₄₄ and GM₁ (solubilized in 10 ml/kg of sterile saline physiological solution) were compared to indomethacin as a comparison compound. For study of the oral route, each compound was administered by oral route one hour before injection of carrageenan. For study of the subcutaneous and intraperitoneal routes, each compound was administered 30 minutes before the same. To study topical administration, AGF₄₄ and GM₁ (as 0.1% aqueous gels) were compared to 5% Artrosilene gel (ketoprefene lysine salt). Each compound was applied locally to the right paw, and administration was effected twice, one hour before and immediately after injection of carrageenan, massaging lightly for 30 seconds to ensure complete absorption. The control groups received saline physiological solution (10 ml/kg) and placebo gel (0.2-0.4 ml/rat twice) respectively. Plethysmometric evaluation of the volume of the right paw was effected immediately before sub-plantar injection of carrageenan an 3 hours after the same. The antiedematous effect of the treatment was calculated by evaluating the average increase in paw volume at the 3rd hour (compared to time 0) based on control values.

Sprague-Dawley rats = assay: acetic acid-induced peritonitis test (antiexudative activity); format: in vivo, rat; conditions: for % inhibition: peritoneal exudate
Method: The study was conducted on Sprague-Dawley rats, weighing between 200 and 300 gr. An evaluation was made of the capacity of the isopropyl ester of GM₁ ganglioside (hereafter known as AGF₄₄) and GM₁ itself, to inhibit the formation of peritoneal exudate following intraperitoneal injection (10 ml/kg) of a 0.5% acetic acid solution. To study administration by oral, subcutaneous and intraperitoneal routes, AGF₄₄ and GM₁ (solubilized in 10 ml/kg of sterile saline physiological solution) and a comparison compound indomethacin were administered by the individual routes one hour before the injection of acetic acid. To study topical administration, one hour before i.p. injection of acetic acid, AGF₄₄ and GM₁ in the form of 0.1% aqueous gels and the comparison 5% Artrosilene gel (ketoprofen lysine salt) were applied to the right paws with a light massage for 30 seconds to ensure complete absorption of the gel. The control groups received saline physiological solution (10 ml/kg) and placebo gel (0.2 ml/rat), respectively. 30 minutes after exudate inducement the animals were sacrificed, samples were taken of the peritoneal exudate and the percentage of inhibition of the same in relation to control values was calculated.

[1] = intraperitoneal, 1 mg/kg, 30 minutes before carrageenan
[2] = intraperitoneal, 5 mg/kg, 30 minutes before carrageenan
[3] = oral, 1 mg/kg, one hour before 1% carrageenan
[4] = oral, 5 mg/kg, one hour before carrageenan
[5] = subcutaneous, 1 mg/kg, 30 minutes before carrageenan
[6] = subcutaneous, 5 mg/kg, 30 minutes before carrageenan
[7] = intraperitoneal, 1 mg/kg, one hour before acetic acid
[8] = oral, 1 mg/kg, one hour before i.p. 0.5% acetic acid (10 ml/kg)
[9] = oral, 2.5 mg/kg, one hour before acetic acid
[10] = subcutaneous, 1 mg/kg, one hour before acetic acid
[11] = subcutaneous, 2.5 mg/kg, one hour before acetic acid
[12] = intraperitoneal, 2 mg/kg, 30 minutes before carrageenan
[13] = oral, 2 mg/kg, one hour before carrageenan
[14] = subcutaneous, 2 mg/kg, 30 minutes before carrageenan
[15] = intraperitoneal, 2.5 mg/kg, one hour before acetic acid
[16] = topical to right paw, 0.1% gel 0.2 ml/rat, 1.4 mg/kg, one hour before acetic acid

| Compound | % inhibition (male Sprague Dawley rats; [1]) [%] | % inhibition (male Sprague Dawley rats; [2]) [%] | % inhibition (male Sprague Dawley rats; [3]) [%] | % inhibition (male Sprague Dawley rats; [4]) [%] | % inhibition (male Sprague Dawley rats; [5]) [%] | % inhibition (male Sprague Dawley rats; [6]) [%] | % inhibition (Sprague-Dawley rats; [7]) [%] | % inhibition (Sprague-Dawley rats; [8]) [%] | % inhibition (Sprague-Dawley rats; [9]) [%] | % inhibition (Sprague-Dawley rats; [10]) [%] | % inhibition (Sprague-Dawley rats; [11]) [%] | % inhibition (male Sprague Dawley rats; [12]) [%] | % inhibition (male Sprague Dawley rats; [13]) [%] | % inhibition (male Sprague Dawley rats; [14]) [%] | % inhibition (Sprague-Dawley rats; [15]) [%] | % inhibition (Sprague-Dawley rats; [16]) [%] | other results |
| --- | --- | --- | --- | --- | --- | --- | --- | --- | --- | --- | --- | --- | --- | --- | --- | --- | --- |
| COc1ccc2c(c1)c(CC(=O)O)c(C)n2C(=O)c1ccc(Cl)cc1 [Indomethacin, indomethacin, reference compound] | 23 | 67 | 22 | 67 | 30 | 60 | 70 | 74 | 90 | 64 | 84 |  |  |  |  |  |  |
| GM₁ ganglioside [GM1, reference compound] |  | 30 |  | 32 |  | 31 | 47 | 56 | 63 | 44 | 52 | 20 | 20 | 19 | 51 | 30 | % inhibition (male Sprague Dawley rats; topical, 0.1% gel 0.2 ml/rat/twice, dose in mg/kg not given): 20% |
| isopropyl ester of GM₁ ganglioside [GM1 isopropyl ester] | 18 | 57 | 20 | 60 | 25 | 50 | 55 | 70 | 72 | 47 | 61 | 32 | 32 | 30 | 60 | 43 | antiinflammatory activity (male Sprague Dawley rats; at doses of over 10 mg/kg): it diminishes at doses of over 10 mg/kg; Maximum efficacy (inhibition) (male Sprague Dawley rats; by oral route): 50-60%; % inhibition (male Sprague Dawley rats; topical, 0.1% gel 0.2 ml/rat/twice, 1.25 x 2 mg/kg): 32%; % inhibition (male Sprague Dawley rats; topical, 0.1% gel 0.4 ml/rat/twice, 2.5 x 2 mg/kg): 43%; Peritoneal exudate inhibition (Sprague-Dawley rats; after oral administration): 70-80%; antiexudative efficacy (Sprague-Dawley rats; at doses of less than 0.1 mg/kg (in the order of 0.1 mg/kg)): efficacious; antiexudative activity (Sprague-Dawley rats; at doses of over 10 mg/kg): the activity decreases; antiexudative activity compared with indomethacin (Sprague-Dawley rats; oral, at 1 mg/kg): comparable to that of indomethacin; % inhibition (Sprague-Dawley rats; intraperitoneal, 5 mg/kg, one hour before acetic acid): 64%; % inhibition (Sprague-Dawley rats; oral, 5 mg/kg, one hour before acetic acid): 77%; % inhibition (Sprague-Dawley rats; subcutaneous, 5 mg/kg, one hour before acetic acid): 70% |
